From PubChem BioAssay (NCI)
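96-well plates; 48 h exposure; 5 concentrations. Endpoints by linear interpolation between flanking doses. Not reached: highest tested concentration assigned. Here, GI50 denotes the concentration required for 50% inhibition of growth. At the TGI there is no net growth.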

How the values were obtained:
Test in all cases: inhibition of tumour cell growth, NCI panel, 48 h
HT29 colon = test system: HT29 colon
SF-295 CNS = test system: SF-295 CNS
OVCAR-8 ovarian = test system: OVCAR-8 ovarian
ACHN renal = test system: ACHN renal
CCRF-CEM leukemia = test system: CCRF-CEM leukemia
OVCAR-5 ovarian = test system: OVCAR-5 ovarian
U251 CNS = test system: U251 CNS
UACC-257 melanoma = test system: UACC-257 melanoma
SNB-75 CNS = test system: SNB-75 CNS
OVCAR-4 ovarian = test system: OVCAR-4 ovarian

CCOC(=O)C1=C(C)CC2C(=O)OC(=O)C2C1(C)C (stereo not drawn)
TGI (HT29 colon): > 100 µM | TGI (SF-295 CNS): > 100 µM | TGI (OVCAR-8 ovarian): > 100 µM | TGI (ACHN renal): > 100 µM | TGI (CCRF-CEM leukemia): > 100 µM | TGI (OVCAR-5 ovarian): > 100 µM | TGI (U251 CNS): > 100 µM | TGI (UACC-257 melanoma): > 100 µM

O=[S@@]1Nc2ccc(Br)cc2S1
TGI (HT29 colon): > 100 µM | TGI (SF-295 CNS): > 100 µM | TGI (SNB-75 CNS): > 100 µM | TGI (ACHN renal): > 100 µM | TGI (CCRF-CEM leukemia): > 100 µM | TGI (U251 CNS): > 100 µM | TGI (UACC-257 melanoma): > 100 µM

CCCCCCCC(=O)SCC/C=C/[C@@H]1CC(=O)NCc2cccc(n2)C2=N[C@@](C)(CS2)C(=O)N[C@@H](C(C)C)C(=O)N1
GI50 (HT29 colon): 0.181 µM | TGI (HT29 colon): 7.23 µM | GI50 (OVCAR-4 ovarian): 0.766 µM | TGI (OVCAR-4 ovarian): > 33.3 µM | GI50 (SF-295 CNS): 0.804 µM | TGI (SF-295 CNS): 8.59 µM | GI50 (SNB-75 CNS): 0.223 µM | TGI (SNB-75 CNS): > 33.3 µM | GI50 (OVCAR-8 ovarian): 0.421 µM | TGI (OVCAR-8 ovarian): > 33.3 µM | GI50 (ACHN renal): 2.71 µM | TGI (ACHN renal): > 33.3 µM | GI50 (CCRF-CEM leukemia): 1.47 µM | TGI (CCRF-CEM leukemia): > 33.3 µM | GI50 (OVCAR-5 ovarian): 0.771 µM | TGI (OVCAR-5 ovarian): > 33.3 µM | GI50 (U251 CNS): 0.889 µM | TGI (U251 CNS): 8.16 µM

CNC(=O)c1ccccc1Nc1nc(Nc2ccc(N3CCOCC3)cc2OC)ncc1Cl
GI50 (HT29 colon): 0.0714 µM | TGI (HT29 colon): 4.73 µM | GI50 (OVCAR-4 ovarian): 1.95 µM | TGI (OVCAR-4 ovarian): > 47.1 µM | GI50 (SF-295 CNS): 0.503 µM | TGI (SF-295 CNS): 11.1 µM | GI50 (SNB-75 CNS): 0.766 µM | TGI (SNB-75 CNS): 5.44 µM | GI50 (OVCAR-8 ovarian): 2.29 µM | TGI (OVCAR-8 ovarian): > 100 µM | GI50 (CCRF-CEM leukemia): 0.531 µM | TGI (CCRF-CEM leukemia): > 81.9 µM | GI50 (U251 CNS): 1.94 µM | TGI (U251 CNS): > 47.8 µM | GI50 (UACC-257 melanoma): 0.421 µM | TGI (UACC-257 melanoma): > 100 µM

COC(=O)[C@@]12C3=NO[C@]1(C(=O)OC)C(O[Si](C)(C)C(C)(C)C)[C@H]1OC(C)(C)O[C@H]1[C@@H]2C(OCc1ccccc1)CC3 (stereo partly drawn)
TGI (HT29 colon): > 100 µM | TGI (OVCAR-4 ovarian): 97.2 µM | TGI (SF-295 CNS): > 100 µM | TGI (SNB-75 CNS): 58 µM | TGI (OVCAR-8 ovarian): > 100 µM | TGI (ACHN renal): 28 µM | TGI (CCRF-CEM leukemia): > 100 µM | TGI (U251 CNS): > 100 µM

CCN(CC)CC(C(=O)Nc1c(C)cccc1C)/C(C)=N\NC(=O)C[N+](C)(C)C (stereo not drawn)
TGI (HT29 colon): > 100 µM | TGI (OVCAR-4 ovarian): > 100 µM | TGI (SF-295 CNS): > 100 µM | TGI (SNB-75 CNS): > 100 µM | TGI (OVCAR-8 ovarian): > 100 µM | TGI (ACHN renal): > 100 µM | TGI (OVCAR-5 ovarian): > 100 µM | TGI (U251 CNS): > 100 µM | TGI (UACC-257 melanoma): > 100 µM

CC(=O)[O][Hg][c]1c(N)c(C)cc(C)c1F
GI50 (SF-295 CNS): 7.92 µM | TGI (SF-295 CNS): 21.8 µM | GI50 (SNB-75 CNS): 1.6 µM | TGI (SNB-75 CNS): 5.25 µM | GI50 (ACHN renal): 1.61 µM | TGI (ACHN renal): 3.08 µM | GI50 (CCRF-CEM leukemia): 0.401 µM | TGI (CCRF-CEM leukemia): > 24.3 µM | GI50 (OVCAR-5 ovarian): 1.95 µM | TGI (OVCAR-5 ovarian): 3.67 µM | GI50 (U251 CNS): 0.672 µM | TGI (U251 CNS): 2.06 µM | GI50 (UACC-257 melanoma): 1.51 µM | TGI (UACC-257 melanoma): 2.96 µM

FC(F)(F)c1ccc(C2SCc3nc4ccccc4n32)cc1 (stereo not drawn)
TGI (HT29 colon): > 100 µM | TGI (SF-295 CNS): > 100 µM | TGI (SNB-75 CNS): > 100 µM | TGI (OVCAR-8 ovarian): > 100 µM | TGI (ACHN renal): > 100 µM | TGI (CCRF-CEM leukemia): > 100 µM | TGI (OVCAR-5 ovarian): > 100 µM | TGI (U251 CNS): > 100 µM | TGI (UACC-257 melanoma): > 100 µM

CC1=C(C#N)C23C(=O)c4ccccc4C(O)=C2C(=O)C=CC3(O)N1Cc1ccccc1 (stereo not drawn)
GI50 (HT29 colon): 43.7 µM | TGI (HT29 colon): > 100 µM | GI50 (OVCAR-4 ovarian): 38.6 µM | TGI (OVCAR-4 ovarian): > 100 µM | GI50 (SF-295 CNS): 17.6 µM | TGI (SF-295 CNS): > 100 µM | GI50 (SNB-75 CNS): 36.6 µM | TGI (SNB-75 CNS): > 100 µM | GI50 (OVCAR-8 ovarian): 38.5 µM | TGI (OVCAR-8 ovarian): > 100 µM | GI50 (ACHN renal): 29.4 µM | TGI (ACHN renal): > 100 µM | GI50 (OVCAR-5 ovarian): 30.3 µM | TGI (OVCAR-5 ovarian): > 100 µM | GI50 (U251 CNS): 42 µM | TGI (U251 CNS): > 100 µM | GI50 (UACC-257 melanoma): 35 µM | TGI (UACC-257 melanoma): > 100 µM

COC(=O)Nc1nc2ccc(S(=O)c3ccccc3)cc2[nH]1 (stereo not drawn)
GI50 (HT29 colon): 3.46 µM | TGI (HT29 colon): 54.1 µM | GI50 (OVCAR-4 ovarian): 7.73 µM | TGI (OVCAR-4 ovarian): > 100 µM | GI50 (SNB-75 CNS): 1.75 µM | TGI (SNB-75 CNS): 5.75 µM | GI50 (OVCAR-8 ovarian): 14.8 µM | TGI (OVCAR-8 ovarian): > 100 µM | GI50 (ACHN renal): 7.59 µM | TGI (ACHN renal): > 100 µM | GI50 (CCRF-CEM leukemia): 5.16 µM | TGI (CCRF-CEM leukemia): > 100 µM | GI50 (OVCAR-5 ovarian): 9.12 µM | TGI (OVCAR-5 ovarian): > 100 µM | GI50 (U251 CNS): 4.45 µM | TGI (U251 CNS): > 100 µM | GI50 (UACC-257 melanoma): > 100 µM | TGI (UACC-257 melanoma): > 100 µM

CC(C)=CCCc1c(C)ccc2c1C(=O)C(=O)C(C(C)C)=C2
TGI (HT29 colon): > 22 µM | TGI (OVCAR-4 ovarian): 8.81 µM | TGI (SF-295 CNS): > 22 µM | TGI (SNB-75 CNS): > 22 µM | TGI (OVCAR-8 ovarian): 7 µM | TGI (ACHN renal): 6.84 µM | TGI (CCRF-CEM leukemia): 1.9 µM | TGI (U251 CNS): > 22 µM

O=C(O)c1cc(C(=O)O)cc(N2C(=O)c3ccccc3C2=O)c1
TGI (HT29 colon): > 100 µM | TGI (OVCAR-4 ovarian): > 100 µM | TGI (SF-295 CNS): > 100 µM | TGI (SNB-75 CNS): > 100 µM | TGI (OVCAR-8 ovarian): > 100 µM | TGI (ACHN renal): > 100 µM | TGI (OVCAR-5 ovarian): > 100 µM | TGI (U251 CNS): > 100 µM | TGI (UACC-257 melanoma): > 100 µM

Cc1cnc(NC(=O)C(Cc2ccccc2)NC(=O)c2ccccc2)s1 (stereo not drawn)
GI50 (HT29 colon): 26 µM | TGI (HT29 colon): > 100 µM | GI50 (OVCAR-4 ovarian): 16.3 µM | TGI (OVCAR-4 ovarian): > 100 µM | GI50 (SNB-75 CNS): 6.53 µM | TGI (SNB-75 CNS): 27.7 µM | GI50 (OVCAR-8 ovarian): 2.38 µM | TGI (OVCAR-8 ovarian): 9.16 µM | GI50 (ACHN renal): 3.49 µM | TGI (ACHN renal): 16.9 µM | GI50 (CCRF-CEM leukemia): 34.7 µM | TGI (CCRF-CEM leukemia): > 100 µM | GI50 (OVCAR-5 ovarian): 25.3 µM | TGI (OVCAR-5 ovarian): 63.7 µM | GI50 (U251 CNS): 5.25 µM | TGI (U251 CNS): 19.3 µM | GI50 (UACC-257 melanoma): 1.14 µM | TGI (UACC-257 melanoma): 3.16 µM

COc1ccc2nc3cc(Cl)ccc3c(Sc3ccccc3[N+](=O)[O-])c2c1
TGI (OVCAR-4 ovarian): > 100 µM | TGI (SF-295 CNS): > 100 µM | TGI (SNB-75 CNS): 37.3 µM | TGI (OVCAR-8 ovarian): > 100 µM | TGI (ACHN renal): > 100 µM | TGI (CCRF-CEM leukemia): > 100 µM | TGI (OVCAR-5 ovarian): > 100 µM | TGI (U251 CNS): > 100 µM | TGI (UACC-257 melanoma): > 100 µM

COc1cccc(NC(=O)CC(=O)n2nc(C)c(N=Nc3ccccc3)c2C)c1
TGI (HT29 colon): > 100 µM | TGI (OVCAR-4 ovarian): > 100 µM | TGI (SF-295 CNS): > 100 µM | TGI (SNB-75 CNS): > 100 µM | TGI (OVCAR-8 ovarian): > 100 µM | TGI (ACHN renal): > 100 µM | TGI (U251 CNS): > 100 µM | TGI (UACC-257 melanoma): > 100 µM

CC1(C)OC(=O)C(=Cc2ccc(O)cc2)C(=O)O1
TGI (HT29 colon): > 100 µM | TGI (OVCAR-4 ovarian): > 100 µM | TGI (SF-295 CNS): > 100 µM | TGI (OVCAR-8 ovarian): > 100 µM | TGI (ACHN renal): > 100 µM | TGI (CCRF-CEM leukemia): > 100 µM | TGI (OVCAR-5 ovarian): > 100 µM | TGI (U251 CNS): > 100 µM | TGI (UACC-257 melanoma): > 100 µM

COc1c2ccoc2c(/C=C/C=O)c2oc(-c3ccccc3)cc(=O)c12
GI50 (HT29 colon): 25.1 µM | TGI (HT29 colon): > 100 µM | GI50 (OVCAR-4 ovarian): 3.2 µM | TGI (OVCAR-4 ovarian): > 100 µM | GI50 (SF-295 CNS): 13.6 µM | TGI (SF-295 CNS): 97.9 µM | GI50 (SNB-75 CNS): 8.3 µM | TGI (SNB-75 CNS): 67.1 µM | GI50 (OVCAR-8 ovarian): 2.86 µM | TGI (OVCAR-8 ovarian): > 100 µM | GI50 (ACHN renal): 20.8 µM | TGI (ACHN renal): > 100 µM | GI50 (OVCAR-5 ovarian): 22.3 µM | TGI (OVCAR-5 ovarian): 63.7 µM | GI50 (U251 CNS): 3.06 µM | TGI (U251 CNS): 12.9 µM | GI50 (UACC-257 melanoma): 11.5 µM | TGI (UACC-257 melanoma): 24.2 µM

CC[C@@]12CCCN3CC[C@]4(c5cccc(OC)c5N(C(C)=O)[C@@H]4CC1)[C@H]32
TGI (HT29 colon): 44 µM | TGI (OVCAR-4 ovarian): > 100 µM | TGI (SF-295 CNS): > 100 µM | TGI (OVCAR-8 ovarian): > 100 µM | TGI (ACHN renal): > 100 µM | TGI (CCRF-CEM leukemia): 57.1 µM | TGI (OVCAR-5 ovarian): > 100 µM | TGI (U251 CNS): > 100 µM | TGI (UACC-257 melanoma): > 100 µM
